Data published in PubChem BioAssay (NCI).
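Compound exposure: 48 hours, 5 concentrations, 96-well plates. GI50 = concentration required for 50% inhibition of growth. Definition used: TGI = concentration required for complete inhibition of growth.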 Where a SMILES comes first, the peptide text is derived from it. [ ]: non-standard residue; d: D form. The star is where a group is joined. mTyr = N[CH](Cc1cccc(O)c1)C(=O)O; Cbz = O=C(OCc1ccccc1)*; OBn = c1ccc(CO*)cc1

Legend:
Assay in all cases: NCI anticancer screen, dose series, 48 h; in the data active means GI50 below about 0.43 µM; inactive means the rest
[1] = tested on: A498 renal
[2] = tested on: HCT-116 colon
[3] = tested on: IGROV1 ovarian
[4] = tested on: MDA-MB-231 breast
[5] = tested on: MDA-MB-435
[6] = tested on: NCI-H226 lung
[7] = tested on: OVCAR-4 ovarian
[8] = tested on: RXF 393 renal
[9] = tested on: SF-539 CNS
[10] = tested on: SK-OV-3 ovarian

CC(=O)OCC1OC(n2c(=O)[nH]c(=O)c3sccc32)C(Br)C1OC(C)=O (stereo not drawn)
> 100 µM: TGI [1] | TGI [2] | TGI [3] | TGI [4] | TGI [5] | TGI [6] | TGI [7] | TGI [8] | TGI [9]

CC1(C)OCC(C(O)C2OC(C)(C)OC2/C=N\O)O1 (stereo not drawn)
> 100 µM: TGI [1] | TGI [2] | TGI [3] | TGI [8] | TGI [9] | TGI [10]

COC(=O)C(Cc1cccc(O)c1)NC(=O)C(CC(=O)OCc1ccccc1)NC(=O)OCc1ccccc1 (stereo not drawn) (Cbz-Asp(OBn)-[mTyr]-OMe; configuration not given here)
> 100 µM: TGI [1] | TGI [2] | TGI [3] | TGI [4] | TGI [6] | TGI [8]

CC(C)=C/C=C1/CS(=O)(=O)C=C1C
> 100 µM: TGI [1] | TGI [2] | TGI [3] | TGI [4] | TGI [5] | TGI [6] | TGI [8] | TGI [9] | TGI [10]

Cc1n[nH]c(=O)n1/N=C/c1ccc([N+](=O)[O-])o1
47.6 µM: TGI [1]
30.2 µM: TGI [2]
32.3 µM: TGI [7]
37.1 µM: TGI [9]
18.6 µM: TGI [5]
17.7 µM: TGI [8]
74.9 µM: TGI [4]
> 100 µM: TGI [10]
56 µM: TGI [6]

COc1cc2c(cc1OC)C1(c3ccc(Cl)cc3)ON=C(c3ccccc3)N1CS2 (stereo not drawn)
> 100 µM: TGI [1] | TGI [2] | TGI [3] | TGI [6] | TGI [7] | TGI [8] | TGI [9] | TGI [10]

O=C(N/N=C/c1cc(Cl)cc(Cl)c1O)c1ccccc1O
4.97 µM: TGI [8]
6.69 µM: TGI [9]
inactive: GI50 [2] 2.48 µM | GI50 [9] 1.75 µM
14.5 µM: TGI [2]
19.2 µM: TGI [3]
15.3 µM: TGI [10]
40.6 µM: TGI [1]

COc1cc(/C=C(/C#N)C(N)=O)ccc1O
> 100 µM: TGI [1] | TGI [2] | TGI [3] | TGI [6] | TGI [7] | TGI [9] | TGI [10]

Nc1ccc(C(=O)NN2C(=O)C(Cl)C2c2ccccc2)cc1 (stereo not drawn)
> 100 µM: TGI [1] | TGI [2] | TGI [3] | TGI [6] | TGI [7] | TGI [9] | TGI [10]

COc1cc(C(c2ccc3c(c2)OCO3)N2C(=O)CCC2C(=O)O)cc(OC)c1OC (stereo not drawn)
> 100 µM: TGI [1] | TGI [2] | TGI [3] | TGI [4] | TGI [5] | TGI [6] | TGI [7] | TGI [9] | TGI [10]

CC(C)(CC(O)C#N)/[N+]([O-])=[N+](\[O-])C(C)(C)CC(O)C#N (stereo not drawn)
77 µM: TGI [6]
81 µM: TGI [7]
49.6 µM: TGI [3]
62.8 µM: TGI [4]
35.4 µM: TGI [8]
> 100 µM: TGI [1] | TGI [5] | TGI [10]
32.7 µM: TGI [2]

CCOC(=O)c1ccc(C(=O)C(C(C)=O)C(=O)OC(C)(C)C)[nH]1 (stereo not drawn)
> 100 µM: TGI [1] | TGI [2] | TGI [3] | TGI [4] | TGI [5] | TGI [6] | TGI [7] | TGI [8] | TGI [10]

COc1ccc2oc(=N)c(C(=O)Nc3ccccn3)cc2c1
> 100 µM: TGI [1] | TGI [2] | TGI [3] | TGI [4] | TGI [5] | TGI [6] | TGI [7] | TGI [8] | TGI [10]

O=C(Nc1cccc(F)c1)c1cc2ccc(O)cc2oc1=Nc1ccccc1F
12.9 µM: TGI [2]
14.2 µM: TGI [5]
35.6 µM: TGI [1]
27 µM: TGI [9]
7.44 µM: TGI [3]
15.9 µM: TGI [10]
26.8 µM: TGI [7]

N#C/C(=C\c1c[nH]c2ccccc12)C(=O)c1ccc(O)c(O)c1
> 83.7 µM: TGI [9]
> 84.8 µM: TGI [2]
> 89.4 µM: TGI [3]
> 100 µM: TGI [1] | TGI [5] | TGI [6] | TGI [7] | TGI [8] | TGI [10]

O=C(CSC1=NCCN1)Nc1ccccc1
59.6 µM: TGI [2]
33.3 µM: TGI [8]
50.3 µM: TGI [4]
> 100 µM: TGI [1] | TGI [3] | TGI [5] | TGI [7]

Cc1ccc(CC(C)N)cc1 (stereo not drawn)
> 100 µM: TGI [1] | TGI [2] | TGI [3] | TGI [6] | TGI [7] | TGI [8] | TGI [9] | TGI [10]

c1ccc2c3c([nH]c2c1)C1CCCN1CC3 (stereo not drawn)
> 10 µM: TGI [1] | TGI [3] | TGI [4] | TGI [5] | TGI [6] | TGI [7] | TGI [8] | TGI [9] | TGI [10]

COc1cc(-c2cc(-c3cc([N+](=O)[O-])c(/C=N/NC(=O)c4ccncc4)o3)ccc2OC)ccc1C
> 100 µM: TGI [1] | TGI [3] | TGI [6] | TGI [7] | TGI [8] | TGI [9] | TGI [10]

O=[As](O)(O)c1ccc(N=Nc2ccc(O)cc2)cc1
> 100 µM: TGI [1] | TGI [2] | TGI [3] | TGI [4] | TGI [5] | TGI [6] | TGI [7] | TGI [8] | TGI [10]

O=C(Cc1ccccc1)NN1C(=O)C(Cl)C1c1ccccc1O (stereo not drawn)
52.5 µM: TGI [6]
> 100 µM: TGI [2] | TGI [3] | TGI [7] | TGI [8] | TGI [10]

COc1ccc(CSc2ccccc2Cn2cccc2)cc1OC
> 100 µM: TGI [1] | TGI [2] | TGI [3] | TGI [5] | TGI [6] | TGI [7] | TGI [9] | TGI [10]

O=C(O)CNC(=O)c1c2ccccc2nc2ccccc12
> 100 µM: TGI [1] | TGI [2] | TGI [3] | TGI [4] | TGI [5] | TGI [6] | TGI [7] | TGI [9] | TGI [10]

CCN(CC)Cc1sc2nc3ccccc3n2c1-c1ccc(OC)cc1
71.4 µM: TGI [6]
> 100 µM: TGI [2] | TGI [3] | TGI [4] | TGI [7] | TGI [10]
71.6 µM: TGI [1]
12.9 µM: TGI [5]
97 µM: TGI [8]
